US9271982B2, “Animal feed supplement comprising ractopamine and caffeine” (Rivalea (Australia) Pty Ltd, priority 2012, dated 2016)
Counter-ions that a name gives are not always drawn. Like-named read-outs stand apart in the source and are kept apart here.

Assays:
[1] = system: finisher gilts and Improvac males; type: in vivo, pig; settings: for ADFI / FCR / Live weight Day 0 / Live weight Day 14 / Live weight Day 35: RAC 7.5 ppm / caffeine 0.5 kg/t in feed; for Live weight Day 0: day 0 baseline, 16 wk of age; for % pigs P2 >12 mm (carcass weight as covariate): carcass weight included as covariate; for % pigs P2 >12 mm: no covariate
Description: (§1) Pigs were selected to start on trial over three days during week 20 of the test year. […] All diets were formulated to contain 0.62 g available lysine/MJ DE and 13.8 MJ DE/kg.
Data were subjected to an analysis of variance (ANOVA) with the main effects being dietary treatment and sex. Replicate (start date within week) was included in the analyses to account for the blocking factor. The experimental unit for all analyses was the pen of pigs. All analyses were performed using Genstat 8th Edition (Payne R W, Harding S A, Genstat Committee 2005 Genstat release 8 reference manual, USN International: Oxford UK)

[2] = system: finisher gilts and Improvac males; test: Study 1: deaths, removals and animal welfare during the test period; settings: for Deaths (dead/total pigs in treatment group) / Deaths, percentage of pigs: Study 1, entire 35 day test period
Description: as §1

finisher pigs = test: Earlier study evaluating caffeine inclusion rates in finisher diets; type: in vivo, pig; settings: for Feed intake: without caffeine 2.62 kg/d
Description: The management of weight and carcass P2 during Autumn is critical in markets that are paid on a grid of both parameters. The rate of fat deposition is at a maximum during the finisher period and is related to the amount of energy consumed by the pig. Excess energy intake above that required for protein deposition during this time is deposited as fat. As such, strategies to reduce feed intake from the excessive highs during autumn are often implemented. Caffeine is one ingredient that can be included in finisher diets to limit excessive feed intake. A study evaluating caffeine inclusion rates was conducted with the results confirming the intake restricting effects of caffeine inclusion. Feed intake was reduced from 2.62 kg/d to 2.45 and 2.33 kg/d with caffeine included in the diet at either 0.5 kg/t or 0.75 kg/t respectively. […] There has however been no evaluation of the effects of caffeine inclusion when the finisher diet also contains Paylean™. As such, the aim of this study was to determine the effects of caffeine inclusion when Paylean™ is also present in the finisher diet.

[3] = system: female and immunocastrated male pigs; test: Study 2: RAC+caffeine strategy on heavier weight finishers, growth performance and carcass characteristics; type: in vivo, pig; settings: for ADFI / ADG / FCR: Study 2, RAC 7.5 ppm
Description: Pigs were selected over a two week period. […] A: Control; B: […] The interpretation of results is then a direct measure of the impact of commercial diets without RAC and commercial diets that do contain RAC. […] Pigs were slaughtered in a commercial abattoir at the conclusion of the test period. A subset of carcasses (n=12 per treatment) were randomly selected at the abattoir and followed through the boning room for meat yield assessment. Data were subjected to an analysis of variance (ANOVA) with the main effects being dietary treatment and sex. Replicate (start date within week) was included in, the analyses to account for the blocking factor. The experimental unit for all analyses was the pen of pigs. All analyses were performed using Genstat 8th Edition (Payne et al. 2005).

[4] = system: female and immunocastrated male pigs; test: Study 2: carcass (meat) yield in a subset of carcasses followed through the boning room; type: in vivo, pig; settings: Study 2 subset of carcasses, n = 12 per treatment
Description: Pigs were slaughtered in a commercial abattoir at the conclusion of the test period. A subset of carcasses (n=12 per treatment) were randomly selected at the abattoir and followed through the boning room for meat yield assessment.
Data were subjected to an analysis of variance (ANOVA) with the main effects being dietary treatment and sex. Replicate (start date within week) was included in, the analyses to account for the blocking factor. The experimental unit for all analyses was the pen of pigs. All analyses were performed using Genstat 8th Edition (Payne et al. 2005).

[5] = system: female and immunocastrated male pigs; test: Study 3: RAC+caffeine feeding strategy over summer, growth performance and carcase characteristics; type: in vivo, pig
Description: Data were subjected to an analysis of variance (ANOVA) with the main effects being dietary treatment and sex. Replicate (start date within week) was included in the analyses to account for the blocking factor. The experimental unit for all analyses was the pen of pigs. All analyses were performed using Genstat 8th Edition (Payne et al. 2005).

[6] = system: female and immunocastrated male pigs; settings: Study 3, 35 day test period
Description: All animals were selected to start the trial on the one day. Prior to the start of the trial, all pigs were offered a commercial grower diet (no Paylean) and had been in their allocated pens from 10 weeks of age. No remixing of pigs occurred before the start of the test period. […] Oxytetracycline was included in water for two days every fortnight for lawsonia control.
The priming Improvac™ vaccination was administered to the male pigs at 13 weeks of age and the second vaccination at 17 weeks of age (day 0 of the experimental period). Pen weights were recorded at the beginning of the experimental period (day 0, 17 weeks of age) and again at day 14 and day 35 (prior to slaughter). Pen feed Intakes were also recorded over these time periods as measured by feed disappearance and feed conversion efficiency subsequently calculated. All deaths and removals were recorded and taken into account when calculating feed intake and feed efficiency by the adjustment of the number of days that pigs were on trial.

[7] = Study 1 (autumn), diets fed 35 days
[8] = Study 1 (autumn), diets fed 35 days, slaughter at 21 wk
[9] = caffeine 0.5 kg/t in feed, 0-14 days
[10] = caffeine 0.5 kg/t in feed, 0-28 days
[11] = caffeine 0.5 kg/t in feed, 14-28 days
[12] = Study 2, carcass weight included as covariate

Cn1c(=O)c2c(ncn2C)n(C)c1=O [Caffeine]
ADFI ([1]; Study 1 (autumn), 0-14 days): 2.44 kg/day
FCR ([1]; Study 1 (autumn), 0-14 days): 2.64 kg/kg
ADFI ([1]; Study 1 (autumn), 0-35 days): 2.70 kg/day
FCR ([1]; Study 1 (autumn), 0-35 days): 2.78 kg/kg
ADFI ([1]; Study 1 (autumn), 14-35 days): 2.88 kg/day
FCR ([1]; Study 1 (autumn), 14-35 days): 2.89 kg/kg
Live weight Day 0 ([1]; Study 1 (autumn)): 61.3 kg
Live weight Day 14 ([1]; Study 1 (autumn)): 74.2 kg
Live weight Day 35 ([1]; Study 1 (autumn)): 95.3 kg
Dressing % [1, 7]: 77.9%
Carcass P2 (carcass weight as covariate) [1, 8]: 10.4 mm
Carcass weight [1, 8]: 74.1
% pigs P2 >12 mm (carcass weight as covariate) [1, 7]: 22.3%
% pigs P2 >12 mm [1, 7]: 19.5%
Carcass weight ([1]; Study 1, statistical comparison between diets): reduced carcass weight compared to either of the RAC treatment groups
Off trial: Meningitis (number of pigs) ([2]; Large White×Landrace, pig, in vivo): 1
TOTAL deaths and removals (number of pigs) ([2]; Study 1, 0-14 days): 0
Deaths: Ileitis (number of pigs) ([2]; Study 1, 14-35 days): 1
Deaths: SD (number of pigs) ([2]; Study 1, 14-35 days): 1
TOTAL deaths and removals (number of pigs) ([2]; Study 1, 14-35 days): 4
Deaths (dead/total pigs in treatment group) [2]: 2/307
Deaths, percentage of pigs [2]: 0.65%
Off trial: Lame (number of pigs) ([2]; both, Large White×Landrace, pig, in vivo): 1
Reduction of growth rate (finisher pigs; caffeine 0.5 kg/t in diet): 95 g/day
Feed intake (finisher pigs; caffeine 0.5 kg/t in diet): 2.45 kg/day
Reduction of growth rate (finisher pigs; caffeine 0.75 kg/t in diet): 163 g/day
Feed intake (finisher pigs; caffeine 0.75 kg/t in diet): 2.33 kg/day

CC(CCc1ccc(O)cc1)NCC(O)c1ccc(O)cc1 (racemic) [RAC, Ractopamine hydrochloride]
ADFI ([1]; Study 1 (autumn), 0-14 days): 2.72 kg/day
FCR ([1]; Study 1 (autumn), 0-14 days): 2.34 kg/kg
ADFI ([1]; Study 1 (autumn), 0-35 days): 2.96 kg/day
FCR ([1]; Study 1 (autumn), 0-35 days): 2.67 kg/kg
ADFI ([1]; Study 1 (autumn), 14-35 days): 3.13 kg/day
FCR ([1]; Study 1 (autumn), 14-35 days): 2.92 kg/kg
Live weight Day 0 ([1]; Study 1 (autumn)): 61.2 kg
Live weight Day 14 ([1]; Study 1 (autumn)): 77.6 kg
Live weight Day 35 ([1]; Study 1 (autumn)): 100.1 kg
Dressing % [1, 7]: 77.6%
Carcass P2 (carcass weight as covariate) [1, 8]: 10.9 mm
Carcass weight [1, 8]: 77.6
% pigs P2 >12 mm (carcass weight as covariate) [1, 7]: 26.4%
% pigs P2 >12 mm [1, 7]: 29.0%
Off trial: Lame (number of pigs) ([2]; Study 1, 0-14 days): 1
Off trial: Meningitis (number of pigs) ([2]; Study 1, 0-14 days): 1
Off trial: Wound (number of pigs) ([2]; Study 1, 0-14 days): 1
TOTAL deaths and removals (number of pigs) ([2]; Study 1, 0-14 days): 3
Deaths: Hernia (number of pigs) ([2]; Study 1, 14-35 days): 1
Deaths: Ileitis (number of pigs) ([2]; Study 1, 14-35 days): 1
Off trial: Lame (number of pigs) ([2]; Study 1, 14-35 days): 1
TOTAL deaths and removals (number of pigs) ([2]; Study 1, 14-35 days): 3
Deaths (dead/total pigs in treatment group) [2]: 2/298
Deaths, percentage of pigs [2]: 0.67%
Dressing % ([3]; Study 2): 77.1%
Live weight Day 0 ([3]; Study 2 (22-26 wk), RAC 7.5 ppm, caffeine 0.5 kg/t in feed, day 0 baseline): 92.1 kg
Live weight Day 14 ([3]; Study 2 (22-26 wk), RAC 7.5 ppm, caffeine 0.5 kg/t in feed, day 14): 106 kg
Live weight Day 28 ([3]; Study 2 (22-26 wk), RAC 7.5 ppm, caffeine 0.5 kg/t in feed, day 28, in kg (unit assumed)): 120.1
ADFI [3, 9]: 2.92 kg/day
ADG [3, 9]: 0.995 kg/day
FCR [3, 9]: 2.98 kg/kg
ADFI [3, 10]: 3.04 kg/day
ADG [3, 10]: 1.002 kg/day
FCR [3, 10]: 3.11 kg/kg
ADFI [3, 11]: 3.15 kg/day
ADG [3, 11]: 1.008 kg/day
FCR [3, 11]: 3.28 kg/kg
Carcass P2 (carcass weight as covariate) [3, 12]: 11.9 mm
Loin depth (carcass weight as covariate) [3, 12]: 58.3 mm
Carcass P2 ([3]; Study 2, no covariate): 12.0 mm
Carcass weight ([3]; Study 2, slaughter at 26 wk): 92.9 kg
Carcass P2 (carcass weight as covariate) [4]: 12.2 mm
Cold carcass weight [4]: 82.6 kg
HSCW [4]: 93.4 kg
Loin depth (carcass weight as covariate) [4]: 58.2 mm
Percentage Yield: Belly [4]: 20.7%
Percentage Yield: Belly Ribs [4]: 11.39%
Percentage Yield: Leg 90% chemical lean [4]: 6.90%
Percentage Yield: Middle 60-65% chemical lean [4]: 2.43%
Percentage Yield: Middle 80-85% chemical lean [4]: 9.72%
Percentage Yield: Middle rind plus fat [4]: 10.58%
Percentage Yield: Middle total fat [4]: 7.36%
Percentage Yield: Retail leg [4]: 35.80%
Percentage Yield: Tenderloin [4]: 3.65%
Percentage Yield: Topside cap off rind less [4]: 7.79%
Live weight Day 14 ([5]; Study 3 (summer), RAC 7.5 ppm, caffeine 0.5 kg/t in feed, day 14): 79.4 kg
Live weight Day 35 ([5]; Study 3 (summer), RAC 7.5 ppm, caffeine 0.5 kg/t in feed, day 35): 100.5 kg
Average daily feed intake ([5]; Study 3 (summer), Day 0-14): 2.36 kg/day
Average daily gain ([5]; Study 3 (summer), Day 0-14): 1.132 kg/day
Feed conversion ratio ([5]; Study 3 (summer), Day 0-14): 2.15 kg/kg
Average daily feed intake ([5]; Study 3 (summer), Day 0-35): 2.62 kg/day
Average daily gain ([5]; Study 3 (summer), Day 0-35): 1.056 kg/day
Feed conversion ratio ([5]; Study 3 (summer), Day 0-35): 2.48 kg/kg
Average daily feed intake ([5]; Study 3 (summer), Day 14-35): 2.79 kg/day
Average daily gain ([5]; Study 3 (summer), Day 14-35): 1.004 kg/day
Feed conversion ratio ([5]; Study 3 (summer), Day 14-35): 2.80 kg/kg
Loin muscle depth ([5]; Study 3 (summer), carcase): 58.4 mm
P2 ([5]; Study 3 (summer), carcase, carcase weight not taken into account): 11.3 mm
Live weight Day 0 ([5]; Study 3 (summer, 17-22 wk), RAC 7.5 ppm, caffeine 0.5 kg/t in feed, day 0 baseline): 63.5 kg
Response (feed efficiency, daily gain, carcass composition) in words ([5]; Study 3, RAC at 7.5 ppm over the summer period): negligible
Average feed consumed ([5]; Study 3, entire test period): 2.6 kg feed/day
Feed efficiency, more efficient than the control animals ([5]; Study 3, initial 14 day period, not significant): approximately 4%
Average feed intake ([5]; Study 3, initial 14 days): 2.36 kg/day
Combined deaths and removals (number/total pigs) [6]: 5/228
Combined deaths and removals, percentage [6]: 2.2%
Deaths: APP (number of pigs) [6]: 2
Deaths: Lame (number of pigs) [6]: 2
Removals: Unthrifty (number of pigs) [6]: 1
